Reference: patent US20250099420A1, “SMALL MOLECULE MODULATORS OF GPR139 COMPLEX” (University of Florida Research Foundation, Incorporated, priority 2022, published 2025)
Where two headings read alike, the source gives them in different places.

Legend:
parental HEK cells = assay: HEK parental Agonist Counterscreen Assay (non-transfected cells); type: cell-based; settings: for Averaged Max % Response (±St. Dev.): activity relative to known control
Excerpt: The high control for the agonist counterscreen was Forskolin not acetylcholine.

GPR139 = target: T1, GPR139 (Homo sapiens, UniProt Q6DWJ6); assay: GPR139 Agonist titration / agonist counterscreen assay (calcium detection, HEK-GPR139 cells); type: cell-based; set-up: expressed in transfected cells; host or cells: HEK Aequorin cells, Maxcyte transient transfection; settings: GPR139 Agonist Activity; for Averaged Max % Response (±St. Dev.): activity relative to known control; for EC50: read-out: EC50
T1 sequence (Q6DWJ6 1-353): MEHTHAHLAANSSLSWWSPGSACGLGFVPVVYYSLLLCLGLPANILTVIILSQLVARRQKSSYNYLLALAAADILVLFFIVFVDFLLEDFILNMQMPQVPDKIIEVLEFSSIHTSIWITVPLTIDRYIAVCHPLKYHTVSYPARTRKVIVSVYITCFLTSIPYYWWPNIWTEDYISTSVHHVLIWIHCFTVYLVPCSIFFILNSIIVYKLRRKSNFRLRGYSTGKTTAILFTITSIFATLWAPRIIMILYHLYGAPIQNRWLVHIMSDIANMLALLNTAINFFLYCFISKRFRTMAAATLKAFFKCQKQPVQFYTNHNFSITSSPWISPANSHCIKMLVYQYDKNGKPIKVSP
Description: GPR activity was assessed using a calcium detection assay. […] Negative control samples were treated with DMSO. […] Intracellular calcium was measured using Calcium 5.

[1] = HEK Agonist Activity section of Table 4 (parental HEK counterscreen)
[2] = values printed in E-notation without unit
[3] = Homo sapiens, HEK293, HEK Agonist Activity section of Table 4 (parental HEK counterscreen)
[4] = Homo sapiens, HEK293, HEK Agonist Activity, parental non-transfected HEK cells

## COc1ccc(CCC(=O)Nc2ccc(/C(N)=N/O)cc2)cc1 [SR-01000103876]
Parental HEK cells; HEK Agonist Activity section
  Lipophilic Efficiency (logD): 2.61
  Lipophilic Efficiency (logP): 2.60
  Averaged Max % Response (±St. Dev.): 1.17 ± 3.96%
Parental HEK cells; [1]
  EC50: > 14.1 µM
GPR139
  Averaged Max % Response (±St. Dev.): 114.46 ± 17.21%
GPR139; based on logD
  Lipophilic Efficiency (logD): 4.50
GPR139; based on logP
  Lipophilic Efficiency (logP): 4.50
GPR139; fitted dose-response curve
  Hill Slope: 0.82
GPR139; ligand efficiency
  Efficiency Ligand: 0.41
GPR139; [2]
  EC50: 179 nM

## COc1ccc(CCNC(=O)c2ccnc(N3CCN(Cc4ccc5c(c4)OCO5)CC3)c2)cc1 [SR-01000654192]
Parental HEK cells; HEK Agonist Activity section
  Lipophilic Efficiency (logD): 1.42
  Lipophilic Efficiency (logP): 1.29
  Averaged Max % Response (±St. Dev.): 14.64 ± 17.11%
Parental HEK cells; [1]
  EC50: > 13.3 µM
GPR139
  Averaged Max % Response (±St. Dev.): 115.41 ± 10.16%
GPR139; based on logD
  Lipophilic Efficiency (logD): 3.51
GPR139; based on logP
  Lipophilic Efficiency (logP): 3.38
GPR139; fitted dose-response curve
  Hill Slope: 0.89
GPR139; ligand efficiency
  Efficiency Ligand: 0.28
GPR139; [2]
  EC50: 110 nM

## COc1cc(C(=O)NNC(=O)C(C)Oc2ccc(Cl)cc2Cl)cc(OC)c1OC (centres unmarked) [SR-01000644888]
Parental HEK cells; HEK Agonist Activity section
  Lipophilic Efficiency (logD): 1.84
  Lipophilic Efficiency (logP): 1.80
  Averaged Max % Response (±St. Dev.): 30.23 ± 7.95%
Parental HEK cells; [3]
  EC50: > 14.1 µM
GPR139
  Efficiency Ligand: 0.31
  Hill Slope: 0.74
  Lipophilic Efficiency (logD): 3.44
  Lipophilic Efficiency (logP): 3.40
  Averaged Max % Response (±St. Dev.): 113.87 ± 14.45%
GPR139; HEK-GPR139 cells
  EC50: 352 nM

## CC(C)CCNC(=O)CN1CCN(Cc2ccc(F)cc2Cl)C1=O [SR-01000161248]
Parental HEK cells; HEK Agonist Activity section
  Lipophilic Efficiency (logD): 2.51
  Lipophilic Efficiency (logP): 2.51
  Averaged Max % Response (±St. Dev.): −6.23 ± 14.84%
Parental HEK cells; [1]
  EC50: > 14.1 µM
GPR139
  Efficiency Ligand: 0.38
  Hill Slope: 1.12
  Lipophilic Efficiency (logD): 4.17
  Lipophilic Efficiency (logP): 4.17
  Averaged Max % Response (±St. Dev.): 106.33 ± 15.91%
GPR139; HEK-GPR139 cells
  EC50: 309 nM

## COc1cc(C(=O)NNC(=O)COc2ccc3ccccc3c2)cc(OC)c1OC [SR-01000056004]
Parental HEK cells; HEK Agonist Activity section
  Lipophilic Efficiency (logD): 2.56
  Lipophilic Efficiency (logP): 2.55
  Averaged Max % Response (±St. Dev.): −16.39 ± 11.45%
Parental HEK cells; [3]
  EC50: > 15.1 µM
GPR139
  Efficiency Ligand: 0.30
  Hill Slope: 0.89
  Lipophilic Efficiency (logD): 4.08
  Lipophilic Efficiency (logP): 4.08
  Averaged Max % Response (±St. Dev.): 81.95 ± 3.88%
GPR139; HEK-GPR139 cells
  EC50: 450 nM

## O=C(CCc1ccccc1)NNC(=O)C12CC3CC(CC(C3)C1)C2 [SR-01000314474]
Parental HEK cells; HEK Agonist Activity section
  Lipophilic Efficiency (logD): 1.59
  Lipophilic Efficiency (logP): 1.59
  Averaged Max % Response (±St. Dev.): −0.07 ± 5.01%
Parental HEK cells; [3]
  EC50: > 14.1 µM
GPR139
  Efficiency Ligand: 0.37
  Hill Slope: 2.04
  Lipophilic Efficiency (logD): 3.13
  Lipophilic Efficiency (logP): 3.13
  Averaged Max % Response (±St. Dev.): 90.74 ± 17.54%
GPR139; HEK-GPR139 cells
  EC50: 401 nM

## CCn1c(=O)c([N+](=O)[O-])c(NCCc2ccc(OC)cc2)c2ccccc21 [SR-01000918303]
Parental HEK cells; HEK Agonist Activity section
  Lipophilic Efficiency (logD): 2.37
  Lipophilic Efficiency (logP): 2.37
  Averaged Max % Response (±St. Dev.): −6.52 ± 9.86%
Parental HEK cells; [1]
  EC50: > 14.1 µM
GPR139
  Averaged Max % Response (±St. Dev.): 84.68 ± 8.82%
GPR139; based on logD
  Lipophilic Efficiency (logD): 4.29
GPR139; based on logP
  Lipophilic Efficiency (logP): 4.29
GPR139; fitted dose-response curve
  Hill Slope: 0.73
GPR139; ligand efficiency
  Efficiency Ligand: 0.35
GPR139; [2]
  EC50: 166 nM

## O=C(CN1CCCN(Cc2ccc(F)cc2Cl)C1=O)NC1CCCCC1 [SR-01000146448]
Parental HEK cells; HEK Agonist Activity section
  Lipophilic Efficiency (logD): 2.27
  Lipophilic Efficiency (logP): 2.27
  Averaged Max % Response (±St. Dev.): 10.11 ± 11.28%
Parental HEK cells; [1]
  EC50: > 14.1 µM
GPR139
  Efficiency Ligand: 0.35
  Hill Slope: 0.92
  Lipophilic Efficiency (logD): 3.97
  Lipophilic Efficiency (logP): 3.97
  Averaged Max % Response (±St. Dev.): 112.56 ± 16.12%
GPR139; HEK-GPR139 cells
  EC50: 281 nM

## COc1ccc(CCCC(=O)c2cccc(-c3ccc(OC)cc3)c2)cc1 [SR-01000655128]
Parental HEK cells; HEK Agonist Activity section
  Lipophilic Efficiency (logD): 1.68
  Lipophilic Efficiency (logP): 1.68
  Averaged Max % Response (±St. Dev.): 0.74 ± 3.27%
Parental HEK cells; [3]
  EC50: > 14.1 µM
GPR139
  Averaged Max % Response (±St. Dev.): 106.36 ± 3.74%
GPR139; based on logD
  Lipophilic Efficiency (logD): 3.70
GPR139; based on logP
  Lipophilic Efficiency (logP): 3.70
GPR139; fitted dose-response curve
  Hill Slope: 0.50
GPR139; ligand efficiency
  Efficiency Ligand: 0.36

## COc1ccc(CCNC(=O)Nc2ccc3c(c2)CCCN3C(=O)C2CC2)cc1 [SR-01000923125]
Parental HEK cells; HEK Agonist Activity
  Lipophilic Efficiency (logD): 1.53
  Lipophilic Efficiency (logP): 1.53
  Averaged Max % Response (±St. Dev.): 32.19 ± 4.93%
Parental HEK cells; [4]
  EC50: > 14.1 µM
GPR139
  Averaged Max % Response (±St. Dev.): 81.24 ± 9.74%
GPR139; based on logD
  Lipophilic Efficiency (logD): 4.30
GPR139; based on logP
  Lipophilic Efficiency (logP): 4.30
GPR139; fitted dose-response curve
  Hill Slope: 2.01
GPR139; ligand efficiency
  Efficiency Ligand: 0.37
GPR139; [2]
  EC50: 23.7 nM

## O=C(CN1CCCN(Cc2ccc(F)cc2Cl)C1=O)NC1CCCC1 [SR-01000146446]
Parental HEK cells; HEK Agonist Activity section
  Lipophilic Efficiency (logD): 2.71
  Lipophilic Efficiency (logP): 2.71
  Averaged Max % Response (±St. Dev.): −2.89 ± 4.65%
Parental HEK cells; [1]
  EC50: > 14.1 µM
GPR139
  Efficiency Ligand: 0.37
  Hill Slope: 0.77
  Lipophilic Efficiency (logD): 4.40
  Lipophilic Efficiency (logP): 4.40
  Averaged Max % Response (±St. Dev.): 113.08 ± 17.13%
GPR139; HEK-GPR139 cells
  EC50: 289 nM

## C=CCC(O)(CC=C)C(C)NC(=O)CCC1(Cc2ccc3ccccc3c2)CCC(=O)N1 (centres unmarked) [SR-01000190122]
Parental HEK cells; HEK Agonist Activity section
  Lipophilic Efficiency (logD): 1.27
  Lipophilic Efficiency (logP): 1.27
  Averaged Max % Response (±St. Dev.): 0.66 ± 6.28%
Parental HEK cells; [1]
  EC50: > 14.1 µM
GPR139
  Averaged Max % Response (±St. Dev.): 134.89 ± 17.50%
GPR139; based on logD
  Lipophilic Efficiency (logD): 3.22
GPR139; based on logP
  Lipophilic Efficiency (logP): 3.22
GPR139; fitted dose-response curve
  Hill Slope: 0.52
GPR139; ligand efficiency
  Efficiency Ligand: 0.30
GPR139; [2]
  EC50: 161 nM

## Nc1ccc(C(=O)OCC(=O)NC2CCCc3ccccc32)cc1[N+](=O)[O-] (centres unmarked) [SR-01000034627]
Parental HEK cells; HEK Agonist Activity section
  Lipophilic Efficiency (logD): 1.47
  Lipophilic Efficiency (logP): 1.47
  Averaged Max % Response (±St. Dev.): 2.09 ± 12.58%
Parental HEK cells; [3]
  EC50: > 15.3 µM
GPR139
  Averaged Max % Response (±St. Dev.): 64.98 ± 9.75%
GPR139; based on logD
  Lipophilic Efficiency (logD): 3.27
GPR139; based on logP
  Lipophilic Efficiency (logP): 3.27
GPR139; fitted dose-response curve
  Hill Slope: 2.03
GPR139; ligand efficiency
  Efficiency Ligand: 0.34
GPR139; [2]
  EC50: 245 nM

## COc1ccccc1CN1CCNC(=O)C1CC(=O)NCCCN1CCc2ccccc21 (centres unmarked) [SR-01000176838]
Parental HEK cells; HEK Agonist Activity section
  Lipophilic Efficiency (logD): 3.04
  Lipophilic Efficiency (logP): 3.02
  Averaged Max % Response (±St. Dev.): −8.12 ± 1.57%
Parental HEK cells; [3]
  EC50: > 14.1 µM
GPR139
  Efficiency Ligand: 0.27
  Hill Slope: 0.77
  Lipophilic Efficiency (logD): 4.34
  Lipophilic Efficiency (logP): 4.32
  Averaged Max % Response (±St. Dev.): 83.30 ± 1.40%
GPR139; HEK-GPR139 cells
  EC50: 697 nM

## CCOc1nn(CC)cc1-c1nnc(SCc2ccc(C(=O)OC)cc2)n1C [SR-01000919746]
Parental HEK cells; HEK Agonist Activity
  Lipophilic Efficiency (logD): 1.19
  Lipophilic Efficiency (logP): 1.19
  Averaged Max % Response (±St. Dev.): −13.54 ± 17.63%
Parental HEK cells; [4]
  EC50: > 14.1 µM
GPR139
  Averaged Max % Response (±St. Dev.): 101.90 ± 10.65%
GPR139; based on logD
  Lipophilic Efficiency (logD): 3.89
GPR139; based on logP
  Lipophilic Efficiency (logP): 3.89
GPR139; fitted dose-response curve
  Hill Slope: 0.63
GPR139; ligand efficiency
  Efficiency Ligand: 0.38
GPR139; [2]
  EC50: 28.1 nM
